Several values for one entry are separate records, joined by “and”; a condition that tells them apart may be missing. Equal entries are not always repeated.
Tested on: AMO-1 xenografts
Test: AMO-1 xenograft efficacy (tumor volume, body weight); for Mortality Observation Day 34: key: EUTV: Euthanized: tumor volume
Format: in vivo, mouse
Design: key to Anti-tumor Activity vs. AMO-1 (DSMZ), Median / Anti-tumor Activity vs. AMO-1 (DSMZ), individual animal / Anti-tumor Activity vs. AMO-1 (DSMZ), Mean: tumor volume in mm^3 (length × width^2/2)
Settings: for Starting Body Wt.: in g (unit assumed)
Description: All animal studies were conducted in accordance with the guidelines approved by the Institutional Animal Care and Use Committees of AbbVie. The research protocol was approved by In Vivo Pharmacology at AbbVie prior to study initiation but was not publicly registered or disclosed. Female C.B-17 SCID-beige mice (AMO-1, OPM-2, NCI-H929, and OCI-AML2 xenografts) and female NSG mice (MV4-11-Red.Fluc systemic) were purchased from Charles River Laboratories (Wilmington, MA). Animals were housed in a light cycle-controlled room with HEPA filtration at 22 °C. Animals had nesting and climbing cage topper as the primary environmental enrichment. Animals were inoculated subcutaneously in the right flank with 5 × 10^6 (AMO-1, OPM-2, NCI-H929, and OCI-AML2) or intravenous (IV) with 5 × 10^6 (MV4-11-Red.Fluc). The inoculation volume (0.2 mL) comprised a 50:50 mixture of cells in growth media and Matrigel (BD Biosciences) for subcutaneous injections and 100% phosphate-buffered saline for IV administration. All cell lines used in this publication were authenticated using IDEXX for STR profiling as well as their IMPACT and human IMPACT panels for pathogen screening. Electronic calipers were used to measure the length and width of each tumor 2 to 3 times per week. Tumor volume was estimated by applying the following equation: volume = length × width^2/2. All groups remained blinded during measurements and dosing; only veterinary staff were aware of group identity. When tumors reached approximately 200 mm^3, mice were randomized by match and distributed into treatment and control groups. All xenograft trials were conducted using 5 to 10 mice per group, and all mice were ear tagged and monitored individually throughout the studies. […] Tumor burden in the systemic MV4-11-Red.Fluc experiment was measured using an IVIS® spectrum from PerkinElmer by taking the total photon flux of the entire dorsal side of an individual mouse. […] A background control mouse that was tumor naive but received D-Luciferin was placed in the upper left corner of each image. The total flux from this animal was subtracted from the total flux of each animal present in the image.
For in vivo studies, maximal tumor growth inhibition (TGI) was calculated as the greatest treatment response using the following equation: Maximal TGI = (1 − mean tumor volume of the treated group/mean tumor volume of the vehicle control group) × 100. The tumor growth delay (TGD) percentage was determined as the percentage increase of the median time period for the treatment group to reach an arbitrary tumor volume of 1000 mm^3 relative to the vehicle control group. […] A power analysis was conducted using historical data to determine the number of animals required to yield significance of 0.05 at a 30% difference. […] Data from experiments in vivo were analyzed using the student’s t-test for TGI values and the Mann–Whitney U test for TGD using Excel and GraphPad Prism. Fisher’s exact test was used to probe significance of differences in response frequency.

[1] = 3.13 mg/kg IV QDx1, Day 13 (day before dosing begins)
[2] = 3.13 mg/kg QDx1 IV, Day 26, n=8
[3] = 3.13 mg/kg QDx1 IV, Day 28, n=8
[4] = 3.13 mg/kg QDx1 IV, SCID-beige mice, Day 21
[5] = 3.13 mg/kg QDx1 IV, SCID-beige mice, Day 23
[6] = 3.13 mg/kg QDx1 IV, SCID-beige mice, Day 23, mean(T)/mean(C)
[7] = 3.13 mg/kg QDx1 IV, SCID-beige mice, Day 23, median(T)/median(C)

## Cc1c(Cl)c2c(Cl)c(C)c1-c1c(-c3ccc(F)cc3)sc3ncnc(c13)O[C@@H](C(=O)O)Cc1cc(ccc1OCc1ccnc(-c3ccc(OC[C@H]4COCCO4)cc3)n1)OC[C@@H](CN1CCN(C)CC1)O2 [Compound A-1747745.0]
3.13 mg/kg IV QDx1, AMO-1 xenograft, SCID-beige mice
  Starting Body Wt.: 21.625
3.13 mg/kg IV QDx1, clinical observation
  % Mortality: 100.00%
3.13 mg/kg IV QDx1, day 13
  Anti-tumor Activity vs. AMO-1 (DSMZ), Mean: 216.27
  Anti-tumor Activity vs. AMO-1 (DSMZ), Median: 216.30
  Anti-tumor Activity vs. AMO-1 (DSMZ), individual animal: 219 and 210 and 215 and 217 and 224 and 221 and 209 and 214
3.13 mg/kg IV QDx1, day 14
  Group Mean, Body Weight: 21.63 g
3.13 mg/kg IV QDx1, day 16
  Anti-tumor Activity vs. AMO-1 (DSMZ), Mean: 205.11
  Anti-tumor Activity vs. AMO-1 (DSMZ), Median: 207.59
  Anti-tumor Activity vs. AMO-1 (DSMZ), individual animal: 195 and 171 and 227 and 217 and 219 and 212 and 203 and 196
3.13 mg/kg IV QDx1, day 19
  Anti-tumor Activity vs. AMO-1 (DSMZ), Mean: 192.25
  Anti-tumor Activity vs. AMO-1 (DSMZ), Median: 202.67
  Anti-tumor Activity vs. AMO-1 (DSMZ), individual animal: 210 and 196 and 181 and 173 and 128 and 213 and 209 and 227
3.13 mg/kg IV QDx1, day 21
  Anti-tumor Activity vs. AMO-1 (DSMZ), Mean: 316.72
  Anti-tumor Activity vs. AMO-1 (DSMZ), Median: 336.29
  Anti-tumor Activity vs. AMO-1 (DSMZ), individual animal: 248 and 370 and 418 and 238 and 111 and 349 and 477 and 324
3.13 mg/kg IV QDx1, day 23
  Anti-tumor Activity vs. AMO-1 (DSMZ), Mean: 463.98
  Anti-tumor Activity vs. AMO-1 (DSMZ), Median: 467.27
  Anti-tumor Activity vs. AMO-1 (DSMZ), individual animal: 595 and 419 and 553 and 359 and 205 and 462 and 647 and 473
  Group Mean, Body Weight: 22.13 g
3.13 mg/kg IV QDx1, day 26
  Anti-tumor Activity vs. AMO-1 (DSMZ), Mean: 740.25
  Anti-tumor Activity vs. AMO-1 (DSMZ), Median: 757.36
  Anti-tumor Activity vs. AMO-1 (DSMZ), individual animal: 859 and 654 and 702 and 664 and 464 and 884 and 882 and 812
3.13 mg/kg IV QDx1, day 28
  Anti-tumor Activity vs. AMO-1 (DSMZ), Mean: 1102.63
  Anti-tumor Activity vs. AMO-1 (DSMZ), Median: 1024.93
  Anti-tumor Activity vs. AMO-1 (DSMZ), individual animal: 1383 and 753 and 968 and 881 and 872 and 1157 and 1725 and 1082
  Group Mean, Body Weight: 22.38 g
3.13 mg/kg IV QDx1, day 30
  Anti-tumor Activity vs. AMO-1 (DSMZ), Mean: 1440.23
  Anti-tumor Activity vs. AMO-1 (DSMZ), Median: 1430.49
  Anti-tumor Activity vs. AMO-1 (DSMZ), individual animal: 1812 and 984 and 1324 and 1150 and 1149 and 1537 and 1916 and 1649
3.13 mg/kg IV QDx1, day 34
  Anti-tumor Activity vs. AMO-1 (DSMZ), Mean: 2233.47
  Anti-tumor Activity vs. AMO-1 (DSMZ), Median: 2203.67
  Anti-tumor Activity vs. AMO-1 (DSMZ), individual animal: 2874 and 1660 and 1699 and 1719 and 1802 and 2605 and 2742 and 2768
[1]
  Xenograft AMO-1 (DSMZ) tumor volume Day 13, Mean: 216.27 mm³
  Xenograft AMO-1 (DSMZ) tumor volume Day 13, Median: 216.30 mm³
3.13 mg/kg IV QDx1, Day 13 (day before dosing begins), mean(T)/mean(C)
  % T/C (mean): 100.07%
3.13 mg/kg IV QDx1, Day 13 (day before dosing begins), median(T)/median(C)
  % T/C (median): 100.06%
3.13 mg/kg IV QDx1, SCID-beige female mice, Day 13 (randomization, day before dosing begins)
  Xenograft AMO-1 (DSMZ) (mm³) Day 13, individual animals: 219 mm³ and 210 mm³ and 215 mm³ and 217 mm³ and 224 mm³ and 221 mm³ and 209 mm³ and 214 mm³
[2]
  Xenograft AMO-1 (DSMZ) tumor volume Day 26, Mean: 740.25 mm³
  Xenograft AMO-1 (DSMZ) tumor volume Day 26, Median: 757.36 mm³
3.13 mg/kg QDx1 IV, Day 26, mean(T)/mean(C)
  % T/C (mean) tumor volume Day 26: 46.99%
3.13 mg/kg QDx1 IV, Day 26, median(T)/median(C)
  % T/C (median) tumor volume Day 26: 47.41%
[3]
  Xenograft AMO-1 (DSMZ) tumor volume Day 28, Mean: 1102.63 mm³
  Xenograft AMO-1 (DSMZ) tumor volume Day 28, Median: 1024.93 mm³
3.13 mg/kg QDx1 IV, Day 28, mean(T)/mean(C)
  % T/C (mean) tumor volume Day 28: 53.81%
3.13 mg/kg QDx1 IV, Day 28, median(T)/median(C)
  % T/C (median) tumor volume Day 28: 53.13%
3.13 mg/kg QDx1 IV, SCID-beige female mice, Day 26
  Xenograft AMO-1 (DSMZ) tumor volume Day 26, individual animals: 859 mm³ and 654 mm³ and 702 mm³ and 664 mm³ and 464 mm³ and 884 mm³ and 882 mm³ and 812 mm³
3.13 mg/kg QDx1 IV, SCID-beige female mice, Day 28
  Xenograft AMO-1 (DSMZ) tumor volume Day 28, individual animals: 1383 mm³ and 753 mm³ and 968 mm³ and 881 mm³ and 872 mm³ and 1157 mm³ and 1725 mm³ and 1082 mm³
[4]
  Xenograft AMO-1 (DSMZ) Day 21, Mean: 316.72 mm³
  Xenograft AMO-1 (DSMZ) Day 21, Median: 336.29 mm³
3.13 mg/kg QDx1 IV, SCID-beige mice, Day 21, individual tumor volumes
  Xenograft AMO-1 (DSMZ) (mm³) Day 21, individual animals: 248 mm³ and 370 mm³ and 418 mm³ and 238 mm³ and 111 mm³ and 349 mm³ and 477 mm³ and 324 mm³
3.13 mg/kg QDx1 IV, SCID-beige mice, Day 21, mean(T)/mean(C)
  % T/C (mean), Tumor Volume Day 21: 49.55%
3.13 mg/kg QDx1 IV, SCID-beige mice, Day 21, median(T)/median(C)
  % T/C (median), Tumor Volume Day 21: 63.86%
[5]
  Xenograft AMO-1 (DSMZ) Day 23 Mean: 463.98 mm³
  Xenograft AMO-1 (DSMZ) Day 23 Median: 467.27 mm³
3.13 mg/kg QDx1 IV, SCID-beige mice, Day 23, individual tumor volumes
  Xenograft AMO-1 (DSMZ) (mm³) Day 23, individual animals: 595 mm³ and 419 mm³ and 553 mm³ and 359 mm³ and 205 mm³ and 462 mm³ and 647 mm³ and 473 mm³
[6]
  % T/C (mean), body weight Day 23: 104.12%
  % T/C (mean), tumor volume Day 23: 43.45%
[7]
  % T/C (median), body weight Day 23: 104.12%
  % T/C (median), tumor volume Day 23: 48.01%
3.13 mg/kg QDx1 IV, Day 30, SCID-beige female mice, tumor volume per animal
  Xenograft AMO-1 (DSMZ) (mm³) Day 30 (individual animals): 1812 mm³ and 984 mm³ and 1324 mm³ and 1150 mm³ and 1149 mm³ and 1537 mm³ and 1916 mm³ and 1649 mm³
3.13 mg/kg QDx1 IV, Day 30, group mean
  Xenograft AMO-1 (DSMZ) (mm³) Day 30 Mean: 1440.23 mm³
3.13 mg/kg QDx1 IV, Day 30, group median
  Xenograft AMO-1 (DSMZ) (mm³) Day 30 Median: 1430.49 mm³
3.13 mg/kg QDx1 IV, Day 34, SCID-beige female mice, tumor volume per animal
  Xenograft AMO-1 (DSMZ) (mm³) Day 34 (individual animals): 2874 mm³ and 1660 mm³ and 1699 mm³ and 1719 mm³ and 1802 mm³ and 2605 mm³ and 2742 mm³ and 2768 mm³
3.13 mg/kg QDx1 IV, Day 34, group mean
  Xenograft AMO-1 (DSMZ) (mm³) Day 34 Mean: 2233.47 mm³
3.13 mg/kg QDx1 IV, Day 34, group median
  Xenograft AMO-1 (DSMZ) (mm³) Day 34 Median: 2203.67 mm³
3.13 mg/kg QDx1 IV, Day 34, per animal
  Mortality Observation Day 34: EUTV
6.25 mg/kg IV QDx1, AMO-1 xenograft, SCID-beige mice
  Starting Body Wt.: 21.625
6.25 mg/kg IV QDx1, clinical observation
  % Mortality: 100.00%
6.25 mg/kg IV QDx1, day 13
  Anti-tumor Activity vs. AMO-1 (DSMZ), Mean: 216.25
  Anti-tumor Activity vs. AMO-1 (DSMZ), Median: 216.39
6.25 mg/kg IV QDx1, day 14
  Group Mean, Body Weight: 21.63 g
6.25 mg/kg IV QDx1, day 16
  Anti-tumor Activity vs. AMO-1 (DSMZ), Mean: 172.06
  Anti-tumor Activity vs. AMO-1 (DSMZ), Median: 173.79
6.25 mg/kg IV QDx1, day 19
  Anti-tumor Activity vs. AMO-1 (DSMZ), Mean: 133.62
  Anti-tumor Activity vs. AMO-1 (DSMZ), Median: 134.81
6.25 mg/kg IV QDx1, day 21
  Anti-tumor Activity vs. AMO-1 (DSMZ), Mean: 175.92
  Anti-tumor Activity vs. AMO-1 (DSMZ), Median: 202.13
6.25 mg/kg IV QDx1, day 23
  Anti-tumor Activity vs. AMO-1 (DSMZ), Mean: 218.85

Source: publication PMC10600239, “Selective MCL-1 inhibitor ABBV-467 is efficacious in tumor models but is associated with cardiac troponin increases in patients” (Communications Medicine, 2023)
